Key:
[1] = biological target: T1, bovine mitochondrial complex I (proton-translocating NADH:ubiquinone oxidoreductase) (Bos taurus, UniProt P03887+P17694+P42026); experiment: rate constant of D-to-A activation from lag phase of NADH oxidation, SMP; assay type: biochemical; conditions: D-form of complex I; pH 7.0, SET buffer, no alkali cations; control without EIPA 1.00 ± 0.04 min^-1; 165 μM NADH
T1 construct: gene NDUFS2; with NADH-ubiquinone oxidoreductase chain 3; NADH dehydrogenase [ubiquinone]; 1 alpha subcomplex subunit 9, mitochondrial; NADH-ubiquinone oxidoreductase chain 2; NADH-ubiquinone oxidoreductase chain 4; NADH-ubiquinone oxidoreductase chain 4L; NADH-ubiquinone oxidoreductase chain 5; NADH-ubiquinone oxidoreductase chain 6; NADH-ubiquinone oxidoreductase 75 kDa subunit, mitochondrial; NADH dehydrogenase [ubiquinone] flavoprotein 1, mitochondrial; NADH dehydrogenase [ubiquinone] flavoprotein 2, mitochondrial; NADH dehydrogenase [ubiquinone] iron-sulfur protein 3, mitochondrial; NADH dehydrogenase [ubiquinone] iron-sulfur protein 8, mitochondrial
T1 sequence (P17694 34-463): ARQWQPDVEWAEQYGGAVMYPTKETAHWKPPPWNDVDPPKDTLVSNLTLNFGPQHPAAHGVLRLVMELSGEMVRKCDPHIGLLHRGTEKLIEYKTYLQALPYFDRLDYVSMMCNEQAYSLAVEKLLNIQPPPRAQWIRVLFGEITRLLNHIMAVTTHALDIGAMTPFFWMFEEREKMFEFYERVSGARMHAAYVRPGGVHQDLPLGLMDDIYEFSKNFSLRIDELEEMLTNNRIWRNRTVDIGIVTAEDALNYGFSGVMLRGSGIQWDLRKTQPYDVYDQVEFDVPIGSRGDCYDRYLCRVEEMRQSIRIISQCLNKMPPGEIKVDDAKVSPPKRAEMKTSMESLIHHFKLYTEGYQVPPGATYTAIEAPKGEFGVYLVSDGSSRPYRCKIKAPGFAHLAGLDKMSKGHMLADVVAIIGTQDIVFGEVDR
T1 sequence (P42026 38-216): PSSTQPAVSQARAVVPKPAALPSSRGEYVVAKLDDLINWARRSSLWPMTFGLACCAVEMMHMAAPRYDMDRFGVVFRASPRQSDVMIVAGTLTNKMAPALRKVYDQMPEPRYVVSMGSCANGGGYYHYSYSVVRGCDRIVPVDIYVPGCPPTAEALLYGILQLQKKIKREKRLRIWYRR
T1 sequence (P03887 whole entry): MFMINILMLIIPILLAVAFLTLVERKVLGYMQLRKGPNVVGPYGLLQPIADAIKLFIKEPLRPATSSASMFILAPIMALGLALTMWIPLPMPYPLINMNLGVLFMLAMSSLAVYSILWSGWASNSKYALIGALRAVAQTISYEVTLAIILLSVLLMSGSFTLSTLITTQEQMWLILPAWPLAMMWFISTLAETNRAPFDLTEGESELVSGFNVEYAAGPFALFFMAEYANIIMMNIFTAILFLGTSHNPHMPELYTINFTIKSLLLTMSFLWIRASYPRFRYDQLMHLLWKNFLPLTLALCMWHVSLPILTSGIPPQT
T1 sequence (P03898 whole entry partner): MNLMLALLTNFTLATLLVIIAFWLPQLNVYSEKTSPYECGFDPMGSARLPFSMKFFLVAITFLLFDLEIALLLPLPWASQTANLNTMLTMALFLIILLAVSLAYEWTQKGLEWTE
T1 sequence (P34943 36-380 partner): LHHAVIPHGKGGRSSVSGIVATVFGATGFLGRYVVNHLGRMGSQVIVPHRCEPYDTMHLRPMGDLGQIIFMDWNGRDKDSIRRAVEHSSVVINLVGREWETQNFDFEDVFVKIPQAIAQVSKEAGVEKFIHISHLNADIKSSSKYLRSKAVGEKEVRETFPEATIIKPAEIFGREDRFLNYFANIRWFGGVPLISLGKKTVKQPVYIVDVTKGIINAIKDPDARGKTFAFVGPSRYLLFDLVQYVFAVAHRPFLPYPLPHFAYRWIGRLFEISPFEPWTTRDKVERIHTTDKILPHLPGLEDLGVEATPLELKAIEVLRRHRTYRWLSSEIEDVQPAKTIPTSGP

[2] = biological target: T1, bovine mitochondrial complex I (proton-translocating NADH:ubiquinone oxidoreductase); experiment: NADH:Q1 oxidoreductase inhibition, SMP, NADH absorbance at […] nm; assay type: biochemical; conditions: neutral pH (7.0; Figure 7 caption gives NADH-oxidase reaction, A-form); SET buffer, 25 °C, 165 μM NADH; 5-7 min preincubation

In the case of `CCN(c1nc(N)c(C(=O)NC(=N)N)nc1Cl)C(C)C` [EIPA], the “kD → A at 20 μM EIPA” value [1] is reported as 0.22 ± 0.04 min^− 1 and the IC50 [2] is reported as roughly 40 µM.
